Each structure is given as a SMILES string.

This is an account of results in ChEMBL document CHEMBL1143046, “Synthesis and bioassay evaluation of 1-(4-substitutedideneaminooxymethyl)-phenyl-3-(2,6-difluorobenzoyl)ureas” (2007).

Common to all, as to assay type: functional
Experiment [1] relates to Mythimna separata. Put plainly: Insecticidal activity against Mythimna separata at 200 mg/kg.
In experiment [2] the test system is Tetranychus urticae. Put plainly: Acarcidal activity against Tetranychus urticae larvae at 200 mg/kg.
Experiment [3] concerns Tetranychus urticae. Put plainly: Acarcidal activity against Tetranychus urticae eggs at 200 mg/kg.
The test system of experiment [4] is Mythimna separata. Put plainly: Insecticidal activity against Mythimna separata at 50 mg/kg.
The test system of experiment [5] is Mythimna separata. Put plainly: Insecticidal activity against Mythimna separata at 500 mg/kg.
The test system of another experiment is Nephotettix cincticeps. Put plainly: Insecticidal activity against Nephotettix cincticeps at 500 mg/kg.
Experiment [6] concerns Mythimna separata. Put plainly: Insecticidal activity against Mythimna separata at 100 mg/kg.
Experiment [7] concerns Mythimna separata. Put plainly: Insecticidal activity against Mythimna separata at 10 mg/kg.
Experiment [8] concerns Mythimna separata. Put plainly: Insecticidal activity against Mythimna separata at 25 mg/kg.

Regarding `O=C(NC(=O)c1c(F)cccc1F)Nc1ccc(CO/N=C\c2ccc3c(c2)OCO3)cc1`, the Activity came out at 100% with Mythimna separata [1]; 10% in the experiment with Tetranychus urticae [2]; 11% in the experiment on Tetranychus urticae [3]; 100% in the experiment with Mythimna separata [4]; 100% with Mythimna separata [5]; 33.3% in the experiment on Nephotettix cincticeps. The values for the Activity in the experiment with Mythimna separata [6], with Mythimna separata [7] and in the experiment with Mythimna separata [8] were 100%, 50% and 100%, respectively.
On to `CCCS/C(C)=N\OCc1ccc(NC(=O)NC(=O)c2c(F)cccc2F)cc1`, for which the Activity in the experiment on Mythimna separata [1] was found to be 15%; in the experiment with Mythimna separata [5], 75%; with Mythimna separata [6], 10%; in the experiment with Mythimna separata [7], 0%; in the experiment with Mythimna separata [8], 10%.
For the compound `Cc1ccc(Oc2c(/C=N\OCc3ccc(NC(=O)NC(=O)c4c(F)cccc4F)cc3)c(C)nn2C)cc1C`, the Activity in the experiment on Mythimna separata [1] is 0%; in the experiment on Mythimna separata [4], 0%; in the experiment with Mythimna separata [5], 60%; in the experiment on Nephotettix cincticeps, 24.3%; in the experiment with Mythimna separata [6], 0%; in the experiment on Mythimna separata [7], 0%. Moreover, in the experiment with Mythimna separata [8], the Activity was determined as 0%.
As for `Cc1cc(C)cc(Oc2c(/C=N\OCc3ccc(NC(=O)NC(=O)c4c(F)cccc4F)cc3)c(C)nn2C)c1`, the Activity is reported as 100% with Mythimna separata [1]; 0% in the experiment with Mythimna separata [4]; 100% with Mythimna separata [5]; 69.7% in the experiment with Nephotettix cincticeps; 50% in the experiment on Mythimna separata [6]; 0% with Mythimna separata [7]. Further, the Activity in the experiment with Mythimna separata [8] is 0%.
Regarding `O=C(NC(=O)c1c(F)cccc1F)Nc1ccc(CO/N=C\OCc2ccccc2)cc1`, the Activity is on record as 0% in the experiment on Mythimna separata [1], 30% in the experiment with Mythimna separata [5] and 45.7% in the experiment on Nephotettix cincticeps.
For `O=C(NC(=O)c1c(F)cccc1F)Nc1ccc(CO/N=C(/c2ccc(Cl)cc2)C2CC2)cc1` [FLUCYCLOXURON], the Activity in the experiment on Tetranychus urticae [2] is 100%; in the experiment on Tetranychus urticae [3] it was 100%; with Nephotettix cincticeps it was 42.8%; in the experiment with Mythimna separata [7] it was 100%; in the experiment on Mythimna separata [8], 100%.
In the case of `C/C(=N/OCc1ccc(NC(=O)NC(=O)c2c(F)cccc2F)cc1)n1cncn1`, the Activity in the experiment on Mythimna separata [1] is 100%; with Tetranychus urticae [2], 10%; with Tetranychus urticae [3] it was 12%; in the experiment with Mythimna separata [4], 50%; with Mythimna separata [5], 100%; with Nephotettix cincticeps, 19.2%. Further, the Activity in the experiment with Mythimna separata [6] came to 100%; with Mythimna separata [7], 0%; in the experiment with Mythimna separata [8], 0%.
The compound `CC(C)Oc1ccc(/C=N\OCc2ccc(NC(=O)NC(=O)c3c(F)cccc3F)cc2)cc1` returned an Activity with Mythimna separata [5] of 0%.
With `CCS/C(=N/OCc1ccc(NC(=O)NC(=O)c2c(F)cccc2F)cc1)C(C)C`, the Activity in the experiment with Mythimna separata [1] turned out to be 100%; in the experiment on Tetranychus urticae [2] it was 43%; in the experiment on Tetranychus urticae [3] it was 76%; in the experiment on Mythimna separata [5] it was 100%; in the experiment on Nephotettix cincticeps, 41%; in the experiment on Mythimna separata [6] it was 50%. The Activity in the experiment on Mythimna separata [7] and with Mythimna separata [8] was 0% each time.
For the compound `CC(C)(C)c1ccc(/C=N\OCc2ccc(NC(=O)NC(=O)c3c(F)cccc3F)cc2)cc1`, the Activity came out at 0% in the experiment with Mythimna separata [1], 30% with Mythimna separata [5] and 18.2% in the experiment with Nephotettix cincticeps.
As to `C/C(=N/OCc1ccc(NC(=O)NC(=O)c2c(F)cccc2F)cc1)c1ccc2c(c1)OCO2`, the Activity in the experiment on Mythimna separata [1] is 100%; in the experiment on Tetranychus urticae [2], 7%; in the experiment on Tetranychus urticae [3], 10%; with Mythimna separata [4], 90%; with Mythimna separata [5], 100%; in the experiment on Mythimna separata [6], 100%. Moreover, the Activity is listed as 15% with Mythimna separata [7] and 70% with Mythimna separata [8].
In the case of `CCCCS/C(=N/OCc1ccc(NC(=O)NC(=O)c2c(F)cccc2F)cc1)c1ccc(C(C)(C)C)cc1`, the Activity worked out at 65% in the experiment on Mythimna separata [1]; 25% with Mythimna separata [4]; 80% with Mythimna separata [5]; 56.3% with Nephotettix cincticeps; 40% in the experiment on Mythimna separata [6]; 0% in the experiment on Mythimna separata [7]. This compound displayed an Activity with Mythimna separata [8] of 0%.
For `N#C/C(=N/OCc1ccc(NC(=O)NC(=O)c2c(F)cccc2F)cc1)c1ccccc1`, the Activity with Mythimna separata [1] stood at 0%; in the experiment with Mythimna separata [4], 0%; in the experiment on Mythimna separata [5], 25%; in the experiment with Nephotettix cincticeps, 50%; in the experiment with Mythimna separata [6], 0%; in the experiment on Mythimna separata [7], 0%. For the same compound, in the experiment with Mythimna separata [8], the Activity came to 0%.
As to `Cc1nn(-c2ccccc2)c(Cl)c1/C=N\OCc1ccc(NC(=O)NC(=O)c2c(F)cccc2F)cc1`, the Activity with Mythimna separata [1] came to 40%; with Mythimna separata [4], 0%; in the experiment on Mythimna separata [5], 100%; with Nephotettix cincticeps it was 62.5%; in the experiment with Mythimna separata [6], 0%; with Mythimna separata [7], 0%. Also, in the experiment on Mythimna separata [8], the Activity stood at 0%.
On to `Cc1ccc(Oc2c(/C=N\OCc3ccc(NC(=O)NC(=O)c4c(F)cccc4F)cc3)c(C)nn2C)cc1`, for which the Activity is reported as 0% in the experiment with Mythimna separata [1]; 0% in the experiment on Mythimna separata [4]; 30% in the experiment on Mythimna separata [5]; 50% with Nephotettix cincticeps; 0% with Mythimna separata [6]; 0% in the experiment on Mythimna separata [7]. In the experiment on Mythimna separata [8], this compound registered an Activity of 0%.
